Results taken from publication PMC10795023, “Structural Optimization and Biological Evaluation of Isoxazolo[5,4-d]pyrimidines as Selective Toll-Like Receptor 7 Agonists” (ACS Omega, 2024).
“Also recorded” adds a separate entry of the source.

Legend:
hTLR7 = molecular target: T1, hTLR7 (Homo sapiens, UniProt Q9NYK1); test: TLR7 agonist activity, HEK293 hTLR7 SEAP reporter assay; type: cell-based; settings: HEK293 cotransfected with hTLR7 and inducible SEAP reporter gene, 24 h treatment; average ± SD of three independent replicates; n.a. = not active; read-out: EC50
T1 construct: host or cells: HEK293
T1 sequence (Q9NYK1 27-1049): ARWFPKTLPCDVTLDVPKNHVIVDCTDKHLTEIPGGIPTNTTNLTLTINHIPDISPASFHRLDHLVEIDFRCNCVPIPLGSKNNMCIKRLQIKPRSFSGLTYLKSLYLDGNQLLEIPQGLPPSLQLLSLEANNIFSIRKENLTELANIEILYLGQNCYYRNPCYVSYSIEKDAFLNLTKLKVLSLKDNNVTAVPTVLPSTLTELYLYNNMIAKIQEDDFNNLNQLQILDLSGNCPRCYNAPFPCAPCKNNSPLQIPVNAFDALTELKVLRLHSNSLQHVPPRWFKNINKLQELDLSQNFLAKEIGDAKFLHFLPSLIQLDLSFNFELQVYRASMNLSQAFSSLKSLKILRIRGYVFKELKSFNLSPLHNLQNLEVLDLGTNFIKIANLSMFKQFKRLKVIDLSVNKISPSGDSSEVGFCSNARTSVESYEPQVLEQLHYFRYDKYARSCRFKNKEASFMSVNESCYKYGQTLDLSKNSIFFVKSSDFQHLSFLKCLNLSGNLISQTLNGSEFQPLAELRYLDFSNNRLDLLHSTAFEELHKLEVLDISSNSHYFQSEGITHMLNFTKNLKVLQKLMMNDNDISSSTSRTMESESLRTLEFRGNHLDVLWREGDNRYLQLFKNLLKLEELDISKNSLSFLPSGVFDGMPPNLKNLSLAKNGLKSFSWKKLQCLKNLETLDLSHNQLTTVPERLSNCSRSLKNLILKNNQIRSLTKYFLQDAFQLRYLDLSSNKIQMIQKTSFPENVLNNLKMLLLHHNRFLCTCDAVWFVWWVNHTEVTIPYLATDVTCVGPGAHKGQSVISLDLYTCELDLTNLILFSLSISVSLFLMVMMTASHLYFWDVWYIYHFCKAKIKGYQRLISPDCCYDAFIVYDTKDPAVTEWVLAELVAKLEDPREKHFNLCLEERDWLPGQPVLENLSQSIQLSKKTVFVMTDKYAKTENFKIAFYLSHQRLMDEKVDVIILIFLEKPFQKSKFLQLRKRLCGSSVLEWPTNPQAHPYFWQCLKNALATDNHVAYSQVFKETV
Method: TLR7 agonist activities were determined using the HEK293 cell line, which was cotransfected with the hTLR7 gene and an inducible SEAP reporter gene (InvivoGen, San Diego, California, USA) as described previously.[34] Briefly, cells were seeded in 96-well plates (3 × 10^4 cells/well) and incubated at 5% CO2 and 37 °C. After 24 h, the cells were treated with the solutions of the compounds in DMSO. Imiquimod was used as a PC. The cells were incubated again for 24 h under the same conditions. The activity of SEAP in the supernatant of the cells was measured using the QUANTI-Blue reagent (InvivoGen, San Diego, California, USA), according to the manufacturer's protocol. EC50 values were determined using GraphPad Prism 9.2.0. software (San Diego, California, USA) using the nonlinear regression curve fit and four-parameter logistic equation. All experiments were performed in three independent biological replicates. Values are given as averages from the independent measurements with standard deviations calculated.

[1] = system: HEK293 cell line cotransfected with the hTLR7 gene; test: Cytotoxicity, MTS cell proliferation assay; type: cell-based, human; settings: 24 h
Method: The cytotoxicity of the compounds was determined by the MTS assay at concentrations of 150, 50, and 10 μM on the HEK293 cell line cotransfected with the hTLR7 gene (Figure 3).
The cytotoxicity of the compounds was determined using the MTS cell proliferation assay (CellTiter 96 AQueous One Solution Cell Proliferation Assay, Promega, Wisconsin, USA), according to the manufacturer's protocol on the HEK293 cell line, cotransfected with the hTLR7 gene (InVivoGen). Cells were seeded in 96-well plates (1.5 × 10^4 cells/well). After 24 h incubation at 5% CO2 and 37 °C, the cells were treated either with DMSO (negative control) or with solutions of the tested compounds in DMSO. After 24 h, MTS reagent (CellTiter 96 AQueous One Solution Cell Proliferation Assay, Promega, Wisconsin, USA) was added. Cells were incubated for another 2 h, and then absorbance was measured at 490 nm.

[2] = system: human peripheral blood mononuclear cells (PBMCs); test: Cytokine secretion in PBMCs, cytometric bead array; type: cell-based; settings: 24 h; for IL-6 concentration / IL-8 secretion / IL-10 concentration / IL-12p70 secretion / TNF-α secretion / IL-1β secretion: 21a 62.5 and 12.5 μM, 24a 125 and 25 μM
Method: PBMCs were seeded on a 24-well plate and treated with compounds 21a (62.5 μM (21a (1)) and 12.5 μM (21a (2))) and 24a (125 μM (24a (1)) and 25 μM (24a (2))). For a positive control (PC), imiquimod (1) was used (final concentration is 10 μg/mL) and the negative control were cells treated with DMSO. […] The BD Human Cytometric Bead Array (BD Biosciences, California, USA) was used to assay the protein levels of IL-1β, IL-6, IL-8, IL-10, IL-12p70, and TNF-α in the cell culture supernatant, according to the manufacturer’s protocol (BD Biosciences). PBMCs were isolated from buffy coats obtained at the Blood Transfusion Centre of Slovenia. Cells were seeded into 24-well plates (5 × 10^5 cells/well in […] of RPMI medium, Sigma-Aldrich, St. Louis, Missouri, USA) and treated with the selected TLR7 agonist. For a PC, imiquimod was used (final concentration is 10 μg/mL) and the negative control were cells treated with DMSO. Cells were centrifuged after 24 h incubation at 5% CO2 and 37 °C, and cell culture supernatants were used for further analysis. In an assay tube, […] of the Capture Beads, […] of the Detection Reagent, and […] of sample (fivefold dilution) were mixed and incubated for 3 h at room temperature and protected from light. Samples were then washed with 1 mL of wash buffer and centrifuged at 200g for 5 min. The supernatant was carefully aspirated and discarded from each assay tube. The bead pellet was resuspended by adding […] of wash buffer. Flow cytometry was performed using a FACSCalibur system (Becton Dickinson, Inc., New Jersey, USA). A standard curve was prepared by serial dilutions of standards and used for determination of cytokine concentrations in supernatants.

| EC50 (hTLR7) | SMILES | cytotoxicity (cell viability) ([1]; 150, 50 and 10 μM) | IL-6 concentration [2] | IL-8 secretion [2] | IL-10 concentration [2] | IL-12p70 secretion [2] | TNF-α secretion [2] | IL-1β secretion ([2]; imiquimod 10 μg/mL) | induction of TNF-α secretion in comparison to 1 (imiquimod) ([2]; 21a at 62.5 μM, imiquimod 10 μg/mL) | cytotoxicity (cell viability) ([1]; 150 μM) |
| --- | --- | --- | --- | --- | --- | --- | --- | --- | --- | --- |
| 7.8 ± 0.1 µM | CC1CCCN(c2nc(C(F)(F)F)nc3onc(-c4ccc(F)cc4)c23)C1 (stereo not drawn) [Compound 21a, 3-(4-Fluorophenyl)-4-(3-methylpiperidin-1-yl)-6-(trifluoromethyl)isoxazolo[5,4-d]pyrimidine] | noncytotoxic; also recorded: no cytotoxic effects | did not increase significantly | induced the secretion | did not increase significantly | induced the secretion | induced the secretion | induced the secretion | higher induction |  |
|  | Cl.Fc1ccc(-c2noc3nc(C(F)(F)F)nc(N4CCNCC4)c23)cc1 [Compound 21i, 4-(3-(4-Fluorophenyl)-6-(trifluoromethyl)isoxazolo[5,4-d]pyrimidin-4-yl)piperazin-1-ium chloride] | cytotoxic |  |  |  |  |  |  |  | highly cytotoxic |
| 25.3 ± 3.5 µM | CC1CCCN(c2nc(C(F)(F)F)nc3onc(C4CC4)c23)C1 (stereo not drawn) [Compound 24a, 3-Cyclopropyl-4-(3-methylpiperidin-1-yl)-6-(trifluoromethyl)isoxazolo[5,4-d]pyrimidine] |  | did not increase significantly | induced the secretion | did not increase significantly | induced the secretion | induced the secretion | induced the secretion |  |  |
|  | CC1CCCN(c2nc(C(F)(F)F)nc3onc(C4CCNCC4)c23)C1.Cl (stereo not drawn) [Compound 25a, 4-(4-(3-Methylpiperidin-1-yl)-6-(trifluoromethyl)isoxazolo[5,4-d]pyrimidin-3-yl)piperidin-1-ium chloride] |  |  |  |  |  |  |  |  | highly cytotoxic |
|  | CC(C)CNc1nc(C(F)(F)F)nc2onc(C3CCNCC3)c12.Cl [Compound 25b, 4-(4-(Isobutylamino)-6-(trifluoromethyl)isoxazolo[5,4-d]pyrimidin-3-yl)piperidin-1-ium chloride] |  |  |  |  |  |  |  |  | highly cytotoxic |
|  | CC(C)Cn1cnc2c(N)nc3ccccc3c21 [imiquimod, reference compound] |  |  |  |  |  |  | stimulated the release |  |  |
